Among the test systems are SR leukemia; P388/ADR leukemia; HOP-18 NSCLC; P388 leukemia; DMS 273 small cell lung; SN12K1 renal; XF 498 CNS; A498 renal; RXF-631 renal; DMS 114 small cell lung; LXFL 529 NSCLC.
What all share (assay): NCI tumour cell line growth inhibition, 48 h

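Following 48 hours of exposure in 96-well plates, responses at five concentrations were used to interpolate endpoints linearly. TGI is the concentration that stops growth completely.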

With `CCN1c2ccccc2NC(=S)c2c1n[nH]c2-c1ccccc1`, the TGI with SR leukemia is 67.3 µM.
For the molecule `CCCCCCSc1nc(N)nc2nc[nH]c12`, the TGI with P388/ADR leukemia is 44.4 µM; in the test with HOP-18 NSCLC, greater than 72.6 µM; in the test on P388 leukemia, greater than 68 µM; with DMS 273 small cell lung it was greater than 100 µM; in the test with SN12K1 renal it was greater than 100 µM; in the test on XF 498 CNS, greater than 89.6 µM. The TGI in the test on A498 renal was greater than 100 µM.
As for `C/C(=N\Nc1nc2cc(Cl)ccc2s1)c1ccccn1`, the TGI in the test on SR leukemia is greater than 100 µM; with A498 renal, greater than 22.6 µM.
In the case of `COC1/C=C/C=C(/C)Cc2cc(O)c(Cl)c(c2)N(C)C(=O)CC(OC(=O)C(C)C)C2(C)OC2C(C)C2CC1(O)NC(=O)O2` (centres undefined), the TGI with SR leukemia was greater than 55.4 µM.
For `CCOC(=O)c1nc2ccc(OC)cc2c2c1Cc1ccccc1-2`, the TGI with SR leukemia, in the test with RXF-631 renal, with DMS 273 small cell lung, in the test with DMS 114 small cell lung and in the test with LXFL 529 NSCLC was greater than 100 µM each time.
Take `CC(=O)C(=O)NC1/C=C(C)\C=C/C(O)C/C=C(C)\C=C/C(O)CC2OC(=O)C1(C)C(=O)C2C` (centres undefined): the TGI with P388/ADR leukemia is greater than 66.6 µM; in the test on HOP-18 NSCLC, greater than 100 µM; in the test with P388 leukemia, greater than 48.2 µM; with DMS 273 small cell lung, greater than 100 µM; in the test with SN12K1 renal it was greater than 100 µM; in the test with DMS 114 small cell lung, greater than 100 µM. For the same molecule, in the test with A498 renal, the TGI was greater than 100 µM.
For `O=C1CC(/C=C/c2ccco2)=C(O)C1=O`, the TGI in the test on SR leukemia was 37.2 µM.

Values taken from PubChem BioAssay (NCI).
